Experimental data reported in PMC10094297, “The Attenuation of Insulin/IGF-1 Signaling Pathway Plays a Crucial Role in the Myo-Inositol-Alleviated Aging in Caenorhabditis elegans” (International Journal of Molecular Sciences, 2023).

Legend:
[1] = target: T1, PI3K p110α (Homo sapiens, UniProt P42336); assay: PI3 Kinase Activity/Inhibitor Assay Kit (Millipore […]-493), competitive biotinylated-PIP3/GRP1 ELISA, PIP2 substrate; assay type: biochemical
T1 construct: gene PIK3CA

[2] = target: T2, PI3K p110β (Homo sapiens, UniProt P42338); assay: as above; assay type: biochemical
T2 construct: gene PIK3CB
T2 sequence (P42338 whole entry): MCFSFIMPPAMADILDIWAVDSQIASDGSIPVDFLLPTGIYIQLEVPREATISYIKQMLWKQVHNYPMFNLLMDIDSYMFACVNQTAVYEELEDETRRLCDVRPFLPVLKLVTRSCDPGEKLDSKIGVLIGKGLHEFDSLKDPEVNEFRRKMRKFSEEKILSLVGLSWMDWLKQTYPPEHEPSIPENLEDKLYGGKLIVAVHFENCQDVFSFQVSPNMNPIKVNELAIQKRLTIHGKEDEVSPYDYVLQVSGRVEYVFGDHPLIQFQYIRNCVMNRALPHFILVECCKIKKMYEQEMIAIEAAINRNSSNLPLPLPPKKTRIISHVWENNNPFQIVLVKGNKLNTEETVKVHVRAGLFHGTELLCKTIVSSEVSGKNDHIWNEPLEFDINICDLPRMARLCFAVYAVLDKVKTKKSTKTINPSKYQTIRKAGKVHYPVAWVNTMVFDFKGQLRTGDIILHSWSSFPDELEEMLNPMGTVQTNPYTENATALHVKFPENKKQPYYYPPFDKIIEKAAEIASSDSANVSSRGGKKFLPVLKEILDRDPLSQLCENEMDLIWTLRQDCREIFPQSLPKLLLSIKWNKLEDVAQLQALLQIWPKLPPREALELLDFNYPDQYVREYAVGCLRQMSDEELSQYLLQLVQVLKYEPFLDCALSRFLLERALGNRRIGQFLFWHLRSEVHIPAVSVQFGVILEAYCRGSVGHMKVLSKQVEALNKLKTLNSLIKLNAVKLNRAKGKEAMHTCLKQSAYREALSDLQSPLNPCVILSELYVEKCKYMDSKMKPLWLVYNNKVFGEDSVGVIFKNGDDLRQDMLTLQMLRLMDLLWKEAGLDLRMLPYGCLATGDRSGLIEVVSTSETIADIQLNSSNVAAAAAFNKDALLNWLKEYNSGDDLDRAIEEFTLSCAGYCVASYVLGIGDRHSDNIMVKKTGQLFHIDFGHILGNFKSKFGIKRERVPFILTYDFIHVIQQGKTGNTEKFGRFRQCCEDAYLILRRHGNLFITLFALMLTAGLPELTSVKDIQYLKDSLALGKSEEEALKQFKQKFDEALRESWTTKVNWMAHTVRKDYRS

T1 sequence (P42336 whole entry): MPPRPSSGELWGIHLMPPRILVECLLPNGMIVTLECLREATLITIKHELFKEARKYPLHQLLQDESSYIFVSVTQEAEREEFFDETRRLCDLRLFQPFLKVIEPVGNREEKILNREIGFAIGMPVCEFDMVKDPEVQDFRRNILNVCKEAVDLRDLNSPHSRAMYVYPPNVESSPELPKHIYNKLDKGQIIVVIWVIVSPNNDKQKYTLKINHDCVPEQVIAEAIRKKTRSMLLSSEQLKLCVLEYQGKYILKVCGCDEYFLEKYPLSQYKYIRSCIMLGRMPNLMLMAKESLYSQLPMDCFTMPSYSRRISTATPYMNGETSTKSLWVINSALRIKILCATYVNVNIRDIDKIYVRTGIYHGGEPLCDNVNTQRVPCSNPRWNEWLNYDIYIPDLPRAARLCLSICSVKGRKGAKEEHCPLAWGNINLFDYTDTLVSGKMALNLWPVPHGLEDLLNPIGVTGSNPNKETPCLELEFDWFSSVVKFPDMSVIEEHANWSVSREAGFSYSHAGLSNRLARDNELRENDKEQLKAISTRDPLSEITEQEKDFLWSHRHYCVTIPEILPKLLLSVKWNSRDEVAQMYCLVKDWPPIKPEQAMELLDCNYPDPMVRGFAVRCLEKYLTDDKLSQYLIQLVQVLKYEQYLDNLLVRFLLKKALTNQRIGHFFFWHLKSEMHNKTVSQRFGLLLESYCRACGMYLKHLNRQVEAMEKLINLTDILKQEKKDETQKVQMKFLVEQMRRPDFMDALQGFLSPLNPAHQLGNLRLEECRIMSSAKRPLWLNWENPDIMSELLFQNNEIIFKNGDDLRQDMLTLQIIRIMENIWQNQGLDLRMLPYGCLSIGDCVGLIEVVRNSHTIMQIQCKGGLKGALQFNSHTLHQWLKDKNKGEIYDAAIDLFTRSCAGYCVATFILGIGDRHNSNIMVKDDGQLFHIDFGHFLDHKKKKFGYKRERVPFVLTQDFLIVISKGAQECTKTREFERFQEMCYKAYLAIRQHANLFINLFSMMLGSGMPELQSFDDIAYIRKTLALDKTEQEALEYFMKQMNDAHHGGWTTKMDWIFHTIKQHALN

IC50 [1]: 90.2 µM
IC50 [2]: 21.7 µM
SMILES: O[C@H]1[C@H](O)[C@@H](O)[C@H](O)[C@@H](O)[C@H]1O [MI, Myo-inositol]
